Results published in ChEMBL document CHEMBL1201861, “Genomics of Drug Sensitity in Cancer screening data, Wellcome Trust Sanger Institute”.
pIC50: −log10 of the molar value.

system: COR-L88; assay: cells; format: functional, cell-based, Homo sapiens; details: Homo sapiens, COR-L88;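 note: growth inhibition of COR-L88 cells, read out with a cell viability assay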
Description: SANGER: Inhibition of human COR-L88 cell growth in a cell viability assay.

With `O=S(=O)(O)c1ccc2cc(/N=N/c3cc(S(=O)(=O)O)c4cccnc4c3O)ccc2c1` as the compound, how does the pIC50 read?
Its pIC50 is < 4.80.

system: DJM-1; assay: cells; format: functional, cell-based, Homo sapiens; details: Homo sapiens, DJM-1;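 note: growth inhibition of human DJM-1 cells, read out by a cell viability assay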
Description: SANGER: Inhibition of human DJM-1 cell growth in a cell viability assay.

With `O=S(=O)(O)c1ccc2cc(/N=N/c3cc(S(=O)(=O)O)c4cccnc4c3O)ccc2c1` as the compound, how does the pIC50 read?
The pIC50 was < 4.80.

system: DMS-114; assay: cells; format: functional, cell-based, Homo sapiens; details: Homo sapiens, DMS-114

How did the pIC50 turn out when `O=S(=O)(O)c1ccc2cc(/N=N/c3cc(S(=O)(=O)O)c4cccnc4c3O)ccc2c1` was run?
Its pIC50 is < 4.80.

system: EW-11; assay: cells; format: functional, cell-based, Homo sapiens; details: Homo sapiens, EW-11;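 note: growth inhibition of human EW-11 cells, measured with a cell viability assay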
Description: SANGER: Inhibition of human EW-11 cell growth in a cell viability assay.

How did the pIC50 turn out when `O=S(=O)(O)c1ccc2cc(/N=N/c3cc(S(=O)(=O)O)c4cccnc4c3O)ccc2c1` was run?
The pIC50 was < 4.80.

system: EW-16; assay: cells; format: functional, cell-based, Homo sapiens; details: Homo sapiens, EW-16;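 note: growth inhibition of human EW-16 cells, read out as cell viability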
Description: SANGER: Inhibition of human EW-16 cell growth in a cell viability assay.

With `O=S(=O)(O)c1ccc2cc(/N=N/c3cc(S(=O)(=O)O)c4cccnc4c3O)ccc2c1` as the compound, how does the pIC50 read?
The pIC50 was < 4.80.

system: GB-1; assay: cells; format: functional, cell-based, Homo sapiens; details: Homo sapiens, GB-1;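 note: growth of GB-1 cells judged by a viability assay, IC50 marks the concentration inhibiting growth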
Description: SANGER: Inhibition of human GB-1 cell growth in a cell viability assay.

How did the pIC50 turn out when `O=S(=O)(O)c1ccc2cc(/N=N/c3cc(S(=O)(=O)O)c4cccnc4c3O)ccc2c1` was run?
The pIC50 was < 4.80.

system: GI-1; assay: cells; format: functional, cell-based, Homo sapiens; details: Homo sapiens, GI-1;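 note: growth inhibition of human GI-1 cells, measured with a cell viability readout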
Description: SANGER: Inhibition of human GI-1 cell growth in a cell viability assay.

With `O=S(=O)(O)c1ccc2cc(/N=N/c3cc(S(=O)(=O)O)c4cccnc4c3O)ccc2c1` as the compound, how does the pIC50 read?
Its pIC50 is < 4.80.

system: GI-ME-N; assay: cells; format: functional, cell-based, Homo sapiens; details: Homo sapiens, GI-ME-N;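 note: growth inhibition of human GI-ME-N cells, read out with a cell viability assay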
Description: SANGER: Inhibition of human GI-ME-N cell growth in a cell viability assay.

With `O=S(=O)(O)c1ccc2cc(/N=N/c3cc(S(=O)(=O)O)c4cccnc4c3O)ccc2c1` as the compound, how does the pIC50 read?
The pIC50 was < 4.80.

system: GOTO; assay: cells; format: functional, cell-based, Homo sapiens; details: Homo sapiens, GOTO;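 note: growth inhibition of GOTO cells, read out by a cell viability assay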
Description: SANGER: Inhibition of human GOTO cell growth in a cell viability assay.

With `O=S(=O)(O)c1ccc2cc(/N=N/c3cc(S(=O)(=O)O)c4cccnc4c3O)ccc2c1` as the compound, how does the pIC50 read?
Its pIC50 is < 4.80.

system: GR-ST; assay: cells; format: functional, cell-based, Homo sapiens; details: Homo sapiens, GR-ST
Description: SANGER: Inhibition of human GR-ST cell growth in a cell viability assay.

With `O=S(=O)(O)c1ccc2cc(/N=N/c3cc(S(=O)(=O)O)c4cccnc4c3O)ccc2c1` as the compound, how does the pIC50 read?
The pIC50 was < 4.80.

system: GT3TKB; assay: cells; format: functional, cell-based, Homo sapiens; details: Homo sapiens, GT3TKB;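 note: growth inhibition of the cell line, read out with a cell viability assay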
Description: SANGER: Inhibition of human GT3TKB cell growth in a cell viability assay.

With `O=S(=O)(O)c1ccc2cc(/N=N/c3cc(S(=O)(=O)O)c4cccnc4c3O)ccc2c1` as the compound, how does the pIC50 read?
The pIC50 was < 4.80.

system: HL-60; assay: cells; format: functional, cell-based, Homo sapiens; details: Homo sapiens, HL-60;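 note: growth inhibition of human HL-60 cells, read out with a cell viability assay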
Description: SANGER: Inhibition of human HL-60 cell growth in a cell viability assay.

With `O=S(=O)(O)c1ccc2cc(/N=N/c3cc(S(=O)(=O)O)c4cccnc4c3O)ccc2c1` as the compound, how does the pIC50 read?
The pIC50 was < 4.80.

system: HOP-62; assay: cells; format: functional, cell-based, Homo sapiens; details: Homo sapiens, HOP-62;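 note: cell growth inhibition determined with a viability assay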
Description: SANGER: Inhibition of human HOP-62 cell growth in a cell viability assay.

How did the pIC50 turn out when `O=S(=O)(O)c1ccc2cc(/N=N/c3cc(S(=O)(=O)O)c4cccnc4c3O)ccc2c1` was run?
The pIC50 was < 4.80.

system: KARPAS-45; assay: cells; format: functional, cell-based, Homo sapiens; details: Homo sapiens, KARPAS-45;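 note: inhibition of cell line growth, read out through a viability assay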
Description: SANGER: Inhibition of human KARPAS-45 cell growth in a cell viability assay.

How did the pIC50 turn out when `O=S(=O)(O)c1ccc2cc(/N=N/c3cc(S(=O)(=O)O)c4cccnc4c3O)ccc2c1` was run?
Its pIC50 is < 4.80.

system: KE-37; assay: cells; format: functional, cell-based, Homo sapiens; details: Homo sapiens, KE-37;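 note: growth inhibition of KE-37 cells, read out with a cell viability assay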
Description: SANGER: Inhibition of human KE-37 cell growth in a cell viability assay.

`O=S(=O)(O)c1ccc2cc(/N=N/c3cc(S(=O)(=O)O)c4cccnc4c3O)ccc2c1` was tested. Which pIC50 did it give?
Its pIC50 is < 4.80.

system: KGN; assay: cells; format: functional, cell-based, Homo sapiens; details: Homo sapiens, KGN;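 note: growth inhibition of KGN cells, read out with a cell viability assay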
Description: SANGER: Inhibition of human KGN cell growth in a cell viability assay.

With `O=S(=O)(O)c1ccc2cc(/N=N/c3cc(S(=O)(=O)O)c4cccnc4c3O)ccc2c1` as the compound, how does the pIC50 read?
The pIC50 was < 4.80.

system: KLE; assay: cells; format: functional, cell-based; details: Homo sapiens;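 note: growth inhibition of human KLE cells, read out with a cell viability assay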
Description: SANGER: Inhibition of human KLE cell growth in a cell viability assay.

`O=S(=O)(O)c1ccc2cc(/N=N/c3cc(S(=O)(=O)O)c4cccnc4c3O)ccc2c1` was tested. Which pIC50 did it give?
Its pIC50 is < 4.80.

system: KS-1; assay: cells; format: functional, cell-based; details: Homo sapiens;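 note: growth inhibition of KS-1 cells, read out with a cell viability assay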
Description: SANGER: Inhibition of human KS-1 cell growth in a cell viability assay.

With `O=S(=O)(O)c1ccc2cc(/N=N/c3cc(S(=O)(=O)O)c4cccnc4c3O)ccc2c1` as the compound, how does the pIC50 read?
The pIC50 was < 4.80.

system: LAN-6; assay: cells; format: functional, cell-based, Homo sapiens; details: Homo sapiens, LAN-6;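 note: growth inhibition of LAN-6 cells, determined with a cell viability assay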
Description: SANGER: Inhibition of human LAN-6 cell growth in a cell viability assay.

`O=S(=O)(O)c1ccc2cc(/N=N/c3cc(S(=O)(=O)O)c4cccnc4c3O)ccc2c1` was tested. Which pIC50 did it give?
The pIC50 was < 4.80.

system: LB771-HNC; assay: cells; format: functional, cell-based; details: Homo sapiens;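 note: growth inhibition of LB771-HNC human cells, read out with a cell viability assay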
Description: SANGER: Inhibition of human LB771-HNC cell growth in a cell viability assay.

With `O=S(=O)(O)c1ccc2cc(/N=N/c3cc(S(=O)(=O)O)c4cccnc4c3O)ccc2c1` as the compound, how does the pIC50 read?
Its pIC50 is < 4.80.

system: LS-1034; assay: cells; format: functional, cell-based, Homo sapiens; details: Homo sapiens, LS-1034
Description: SANGER: Inhibition of human LS-1034 cell growth in a cell viability assay.

With `O=S(=O)(O)c1ccc2cc(/N=N/c3cc(S(=O)(=O)O)c4cccnc4c3O)ccc2c1` as the compound, how does the pIC50 read?
Its pIC50 is < 4.80.

system: Lu-65; assay: cells; format: functional, cell-based, Homo sapiens; details: Homo sapiens, Lu-65;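 note: growth inhibition of Lu-65 cancer cells, read out by a cell viability assay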
Description: SANGER: Inhibition of human LU-65 cell growth in a cell viability assay.

With `O=S(=O)(O)c1ccc2cc(/N=N/c3cc(S(=O)(=O)O)c4cccnc4c3O)ccc2c1` as the compound, how does the pIC50 read?
Its pIC50 is < 4.80.

system: MC116; assay: cells; format: functional, cell-based, Homo sapiens; details: Homo sapiens, MC116;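 note: growth inhibition of MC116 cells, read out with a cell viability assay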
Description: SANGER: Inhibition of human MC116 cell growth in a cell viability assay.

`O=S(=O)(O)c1ccc2cc(/N=N/c3cc(S(=O)(=O)O)c4cccnc4c3O)ccc2c1` was tested. Which pIC50 did it give?
The pIC50 was < 4.80.

system: MMAC-SF; assay: cells; format: functional, cell-based; details: Homo sapiens;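 note: growth inhibition of human MMAC-SF cells, read out with a cell viability assay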
Description: SANGER: Inhibition of human MMAC-SF cell growth in a cell viability assay.

How did the pIC50 turn out when `O=S(=O)(O)c1ccc2cc(/N=N/c3cc(S(=O)(=O)O)c4cccnc4c3O)ccc2c1` was run?
Its pIC50 is < 4.80.

system: MOLT-16; assay: cells; format: functional, cell-based, Homo sapiens; details: Homo sapiens, MOLT-16;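 note: growth inhibition of human MOLT-16 cells, read out with a cell viability assay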
Description: SANGER: Inhibition of human MOLT-16 cell growth in a cell viability assay.

With `O=S(=O)(O)c1ccc2cc(/N=N/c3cc(S(=O)(=O)O)c4cccnc4c3O)ccc2c1` as the compound, how does the pIC50 read?
Its pIC50 is < 4.80.

system: MPP-89; assay: cells; format: functional, cell-based, Homo sapiens; details: Homo sapiens, MPP-89;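 note: growth inhibition of human MPP-89 cells, read out with a cell viability assay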
Description: SANGER: Inhibition of human MPP-89 cell growth in a cell viability assay.

With `O=S(=O)(O)c1ccc2cc(/N=N/c3cc(S(=O)(=O)O)c4cccnc4c3O)ccc2c1` as the compound, how does the pIC50 read?
The pIC50 was < 4.80.

system: MZ2-MEL; assay: cells; format: functional, cell-based, Homo sapiens; details: Homo sapiens, MZ2-MEL;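 note: growth inhibition of MZ2-MEL cells read out with a cell viability assay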
Description: SANGER: Inhibition of human MZ2-MEL cell growth in a cell viability assay.

With `O=S(=O)(O)c1ccc2cc(/N=N/c3cc(S(=O)(=O)O)c4cccnc4c3O)ccc2c1` as the compound, how does the pIC50 read?
The pIC50 was < 4.80.

system: NB5; assay: cells; format: functional, cell-based, Homo sapiens; details: Homo sapiens, NB5;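 note: growth inhibition of NB5 cells, read out as cell viability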
Description: SANGER: Inhibition of human NB5 cell growth in a cell viability assay.

`O=S(=O)(O)c1ccc2cc(/N=N/c3cc(S(=O)(=O)O)c4cccnc4c3O)ccc2c1` was tested. Which pIC50 did it give?
Its pIC50 is < 4.80.

system: NB6; assay: cells; format: functional, cell-based, Homo sapiens; details: Homo sapiens, NB6;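 note: growth inhibition of NB6 cells, read out by a cell viability assay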
Description: SANGER: Inhibition of human NB6 cell growth in a cell viability assay.

How did the pIC50 turn out when `O=S(=O)(O)c1ccc2cc(/N=N/c3cc(S(=O)(=O)O)c4cccnc4c3O)ccc2c1` was run?
The pIC50 was 4.86.

system: NCI-H1304; assay: cells; format: functional, cell-based, Homo sapiens; details: Homo sapiens, NCI-H1304;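 note: growth inhibition of the cancer cell line, measured in a cell viability assay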
Description: SANGER: Inhibition of human NCI-H1304 cell growth in a cell viability assay.

With `O=S(=O)(O)c1ccc2cc(/N=N/c3cc(S(=O)(=O)O)c4cccnc4c3O)ccc2c1` as the compound, how does the pIC50 read?
Its pIC50 is < 4.80.

system: NCI-H1395; assay: cells; format: functional, cell-based, Homo sapiens; details: Homo sapiens, NCI-H1395;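 note: cell viability assay read-out quantifying reduced proliferation of human NCI-H1395 cells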
Description: SANGER: Inhibition of human NCI-H1395 cell growth in a cell viability assay.

With `O=S(=O)(O)c1ccc2cc(/N=N/c3cc(S(=O)(=O)O)c4cccnc4c3O)ccc2c1` as the compound, how does the pIC50 read?
The pIC50 was < 4.80.

system: NCI-H2126; assay: cells; format: functional, cell-based, Homo sapiens; details: Homo sapiens, NCI-H2126;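 note: growth inhibition of the cancer cell line, determined with a cell viability readout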
Description: SANGER: Inhibition of human NCI-H2126 cell growth in a cell viability assay.

How did the pIC50 turn out when `O=S(=O)(O)c1ccc2cc(/N=N/c3cc(S(=O)(=O)O)c4cccnc4c3O)ccc2c1` was run?
The pIC50 was < 4.80.

system: NCI-H747; assay: cells; format: functional, cell-based, Homo sapiens; details: Homo sapiens, NCI-H747;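 note: growth inhibition of human NCI-H747 cells, read out by a cell viability assay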
Description: SANGER: Inhibition of human NCI-H747 cell growth in a cell viability assay.

How did the pIC50 turn out when `O=S(=O)(O)c1ccc2cc(/N=N/c3cc(S(=O)(=O)O)c4cccnc4c3O)ccc2c1` was run?
The pIC50 was < 4.80.

system: NKM-1; assay: cells; format: functional, cell-based, Homo sapiens; details: Homo sapiens, NKM-1;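 note: growth inhibition of NKM-1 cells, read out with a cell viability assay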
Description: SANGER: Inhibition of human NKM-1 cell growth in a cell viability assay.

`O=S(=O)(O)c1ccc2cc(/N=N/c3cc(S(=O)(=O)O)c4cccnc4c3O)ccc2c1` was tested. Which pIC50 did it give?
The pIC50 was < 4.80.

system: OCUB-M; assay: cells; format: functional, cell-based; details: Homo sapiens;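 note: growth inhibition of the cancer cell line, read out through a cell viability assay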
Description: SANGER: Inhibition of human OCUB-M cell growth in a cell viability assay.

`O=S(=O)(O)c1ccc2cc(/N=N/c3cc(S(=O)(=O)O)c4cccnc4c3O)ccc2c1` was tested. Which pIC50 did it give?
The pIC50 was < 4.80.

system: OVCAR-4; assay: cells; format: functional, cell-based, Homo sapiens; details: Homo sapiens, OVCAR-4;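 note: growth inhibition of human OVCAR-4 cells, measured with a cell viability assay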
Description: SANGER: Inhibition of human OVCAR-4 cell growth in a cell viability assay.

`O=S(=O)(O)c1ccc2cc(/N=N/c3cc(S(=O)(=O)O)c4cccnc4c3O)ccc2c1` was tested. Which pIC50 did it give?
The pIC50 was < 4.80.

system: RCC10RGB; assay: cells; format: functional, cell-based, Homo sapiens; details: Homo sapiens, RCC10RGB;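 note: growth inhibition of human RCC10RGB cells, read out by a cell viability assay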
Description: SANGER: Inhibition of human RCC10RGB cell growth in a cell viability assay.

With `O=S(=O)(O)c1ccc2cc(/N=N/c3cc(S(=O)(=O)O)c4cccnc4c3O)ccc2c1` as the compound, how does the pIC50 read?
Its pIC50 is < 4.80.

system: RXF 393; assay: cells; format: functional, cell-based, Homo sapiens; details: Homo sapiens, RXF 393;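 note: growth inhibition of human RXF 393 cells, read out with a cell viability assay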
Description: SANGER: Inhibition of human RXF393 cell growth in a cell viability assay.

With `O=S(=O)(O)c1ccc2cc(/N=N/c3cc(S(=O)(=O)O)c4cccnc4c3O)ccc2c1` as the compound, how does the pIC50 read?
The pIC50 was < 4.80.

system: SF-126; assay: cells; format: functional, cell-based, Homo sapiens; details: Homo sapiens, SF-126;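 note: growth inhibition of human SF126 cells, read out with a cell viability assay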
Description: SANGER: Inhibition of human SF126 cell growth in a cell viability assay.

With `O=S(=O)(O)c1ccc2cc(/N=N/c3cc(S(=O)(=O)O)c4cccnc4c3O)ccc2c1` as the compound, how does the pIC50 read?
The pIC50 was < 4.80.

system: SH-4; assay: cells; format: functional, cell-based; details: Homo sapiens;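 note: growth inhibition of SH-4 cells, read out with a cell viability assay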
Description: SANGER: Inhibition of human SH-4 cell growth in a cell viability assay.

`O=S(=O)(O)c1ccc2cc(/N=N/c3cc(S(=O)(=O)O)c4cccnc4c3O)ccc2c1` was tested. Which pIC50 did it give?
The pIC50 was < 4.80.

system: SK-MEL-1; assay: cells; format: functional, cell-based, Homo sapiens; details: Homo sapiens, SK-MEL-1;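 note: growth inhibition of human SK-MEL-1 cells, read out by a cell viability assay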
Description: SANGER: Inhibition of human SK-MEL-1 cell growth in a cell viability assay.

How did the pIC50 turn out when `O=S(=O)(O)c1ccc2cc(/N=N/c3cc(S(=O)(=O)O)c4cccnc4c3O)ccc2c1` was run?
The pIC50 was < 4.80.

system: SNU-C2B; assay: cells; format: functional, cell-based; details: Homo sapiens;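 note: cell viability readout used to measure compound-driven suppression of SNU-C2B cell proliferation, IC50 marking half-maximal growth inhibition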
Description: SANGER: Inhibition of human SNU-C2B cell growth in a cell viability assay.

How did the pIC50 turn out when `O=S(=O)(O)c1ccc2cc(/N=N/c3cc(S(=O)(=O)O)c4cccnc4c3O)ccc2c1` was run?
Its pIC50 is < 4.80.

system: ALL-PO; assay: cells; format: functional, cell-based, Homo sapiens; details: Homo sapiens, ALL-PO;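 note: growth inhibition of ALL-PO cells, read out by a cell viability assay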
Description: SANGER: Inhibition of human ALL-PO cell growth in a cell viability assay.

How did the pIC50 turn out when `O=S(=O)(O)c1ccc2cc(/N=N/c3cc(S(=O)(=O)O)c4cccnc4c3O)ccc2c1` was run?
Its pIC50 is < 4.80.

system: BB49-HNC; assay: cells; format: functional, cell-based, Homo sapiens; details: Homo sapiens, BB49-HNC;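 note: cell viability assay read-out, reported as inhibition of BB49-HNC cell growth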
Description: SANGER: Inhibition of human BB49-HNC cell growth in a cell viability assay.

How did the pIC50 turn out when `O=S(=O)(O)c1ccc2cc(/N=N/c3cc(S(=O)(=O)O)c4cccnc4c3O)ccc2c1` was run?
Its pIC50 is < 4.80.

system: BE-13; assay: cells; format: functional, cell-based, Homo sapiens; details: Homo sapiens, BE-13;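 note: growth inhibition of human BE-13 cells, measured with a cell viability assay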
Description: SANGER: Inhibition of human BE-13 cell growth in a cell viability assay.

`O=S(=O)(O)c1ccc2cc(/N=N/c3cc(S(=O)(=O)O)c4cccnc4c3O)ccc2c1` was tested. Which pIC50 did it give?
The pIC50 was < 4.80.

system: C2BBe1; assay: cells; format: functional, cell-based, Homo sapiens; details: Homo sapiens, C2BBe1;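 note: growth inhibition of C2BBe1 cells, read out through a viability assay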
Description: SANGER: Inhibition of human C2BBe1 cell growth in a cell viability assay.

With `O=S(=O)(O)c1ccc2cc(/N=N/c3cc(S(=O)(=O)O)c4cccnc4c3O)ccc2c1` as the compound, how does the pIC50 read?
The pIC50 was < 4.80.

system: TE-10; assay: cells; format: functional, cell-based, Homo sapiens; details: Homo sapiens, TE-10;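 note: growth inhibition of TE-10 cells, measured by a cell viability assay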
Description: SANGER: Inhibition of human TE-10 cell growth in a cell viability assay.

`O=S(=O)(O)c1ccc2cc(/N=N/c3cc(S(=O)(=O)O)c4cccnc4c3O)ccc2c1` was tested. Which pIC50 did it give?
The pIC50 was < 4.80.

system: TGBC24TKB; assay: cells; format: functional, cell-based; details: Homo sapiens;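 note: growth inhibition of human TGBC24TKB cells, read out with a cell viability assay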
Description: SANGER: Inhibition of human TGBC24TKB cell growth in a cell viability assay.

With `O=S(=O)(O)c1ccc2cc(/N=N/c3cc(S(=O)(=O)O)c4cccnc4c3O)ccc2c1` as the compound, how does the pIC50 read?
Its pIC50 is < 4.80.

system: VA-ES-BJ; assay: cells; format: functional, cell-based, Homo sapiens; details: Homo sapiens, VA-ES-BJ;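 note: growth inhibition of the VA-ES-BJ cell line, read out by a cell viability assay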
Description: SANGER: Inhibition of human VA-ES-BJ cell growth in a cell viability assay.

How did the pIC50 turn out when `O=S(=O)(O)c1ccc2cc(/N=N/c3cc(S(=O)(=O)O)c4cccnc4c3O)ccc2c1` was run?
Its pIC50 is < 4.80.

system: no-11; assay: cells; format: functional, cell-based, Homo sapiens; details: Homo sapiens;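 note: growth inhibition of human NO-11 cells, read out with a cell viability assay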
Description: SANGER: Inhibition of human no-11 cell growth in a cell viability assay.

`O=S(=O)(O)c1ccc2cc(/N=N/c3cc(S(=O)(=O)O)c4cccnc4c3O)ccc2c1` was tested. Which pIC50 did it give?
The pIC50 was < 4.80.

system: COLO-684; assay: cells; format: functional, cell-based, Homo sapiens; details: Homo sapiens, COLO-684
Description: SANGER: Inhibition of human COLO-684 cell growth in a cell viability assay.

With `O=S(=O)(O)c1ccc2cc(/N=N/c3cc(S(=O)(=O)O)c4cccnc4c3O)ccc2c1` as the compound, how does the pIC50 read?
The pIC50 was < 4.80.
